Measurements from patent US12644133B2, “Methods and compositions to increase somatic cell nuclear transfer (SCNT) efficiency by removing histone H3-lysine trimethylation” (The Children's Medical Center Corporation, priority 2014, dated 2026).
Values joined by “and” are separate entries in the source; they are usually repeats but may differ in a detail not shown here. Equal values may be shown once.

Legend:
SetDB1 H3K9me3 HMTase = conditions: cited from earlier work
SCNT embryos = assay: Preimplantation development of SCNT embryos cultured in vitro; assay type: cell-based, mouse; conditions: cumulus donor cells (BDF1, female), TSA treatment 15 nM for 8 h, water or mRNA 1800 ng/μl injected
From the text: C57BL/6J female mice were mated with DBA/2J males to produce B6D2F1/J (BDF1) mice. BDF1 and CD-1 (ICR) adult females were used for the collection of recipient oocytes and embryo transfer recipients, respectively. BDF1 mice were used for the collection of donor somatic cells for the analyses of development. (C57BL/6×CAST/EiJ) F1 mice were used for the collection of donor cells for RNA-seq. E13.5 embryos harboring GOF18 delta-PE (Jackson Laboratory, 004654: Tg(Pou5f1-EGFP)2Mnn, C57BL/6J background) were used for the isolation of mouse embryonic fibroblasts (MEF). All animal experiments were approved by the Institutional Animal Care and Use Committee of Harvard Medical School.
Cumulus cells were collected from adult BDF1 females through superovulation by injecting 7.5 IU of pregnant mare serum gonadotropin (PMSG; Harbor) and 7.5 IU of human chorionic gonadotropin (hCG; Millipore). Fifteen hours after the hCG injection, cumulus-oocyte complexes (COCs) were collected from the oviducts and briefly treated with Hepes-buffered potassium simplex-optimized medium (KSOM) containing 300 U/ml bovine testicular hyaluronidase (Calbiochem #385931) to obtain dissociated cumulus cells. Sertoli cells were collected from testes of 3- to 5-day-old BDF1 male mice as described (Matoba et al., 2011). Testicular masses were incubated in PBS containing 0.1 mg/ml collagenase (Life Technologies #17104-019) for 30 min at 37° C. followed by 5 min treatment with 0.25% Trypsine with 1 mM EDTA (Life Technologies #25200-056) at room temperature. After washing for four times with PBS containing 3 mg/ml bovine serum albumin, the dissociated cells were suspended in Hepes-KSOM medium.
Primary mouse embryonic fibroblast (MEF) cells were established from GOF18 delta-PE mouse embryos at 13.5 dpc. After removal of head and all organs, minced tissue from remaining corpus was dissociated in 500 μl of 0.25% Trypsine with 1 mM EDTA for 10 min at 37° C. Cell suspension was diluted with equal amount of DMEM (Life Technologies #11995-073) containing 10% FBS and Penicillin/Streptomycin (Life Technologies #15140-022) and pipetted up and down for 20 times. The cell suspension was diluted with fresh medium and plated onto 100 mm dishes and cultured at 37° C. Two days later, MEF cells were harvested and frozen. Frozen stocks of MEF cells were thawed and used for experiments after one passage.
siRNAs against mouse Suv39h1 (Life Technologies #s74607), Suv39h2 (Life Technologies #s82300) and Setdb1 (Life Technologies #s96549) were diluted in nuclease free water at 50 μM stock solutions. siRNAs were introduced to MEFs with Lipofectamine RNAi Max (Life technologies #35050-061) following manufacturer's protocol. Briefly, 1×10^5 MEF cells were seeded onto 24-well plate (day 0; see FIG. 5A). Twenty-four hours later, […] siRNAs were transfected into MEF cells using Lipofectamine RNAi Max (day 1). Twenty-four hours after the first transfection, the culture media was changed to fresh M293T media [DMEM supplemented with 10% FBS, 0.1 mM non-essential amino acids (Life technologies #11140-050), 2 mM GlutaMAX (Life technologies #35050-079), 50 U/ml penicillin-streptomycin and 0.1 mM 2-mercaptoethanol (Life technologies #21985-023)] (day 2). On day 3, MEF cells were reseeded onto 24-well plates at the density of 1×10^5 cells. Then transfection was repeated once as described above (day 4). Forty-eight hours after the second transfection (day 6), MEF cells were used for immunostaining, RT-qPCR or SCNT.
Somatic cell nuclear transfer was carried out as described previously (Matoba et al., 2011). Briefly, recipient MII oocytes were collected from superovulated adult BDF1 females by brief treatment with 300 U/ml bovine testicular hyaluronidase (Calbiochem). Isolated MII oocytes were enucleated in Hepes-buffered KSOM medium containing 7.5 μg/ml of cytochalasin B (Calbiochem #250233). […]

SCNT blastocysts = assay: ntESC derivation from SCNT blastocysts; assay type: cell-based, mouse
Procedure: Blastocysts were denuded by acid tyrode treatment and cultured on mitomycin treated MEF feeder cells and in DMEM supplemented with 5% FBS, 10% KnockOut serum replacement (Life Technologies #10828-028), 0.1 mM non-essential amino acids, 2 mM GlutaMAX, 50 U/ml penicillin-streptomycin, 0.1 mM 2-mercaptoethanol and 2000 U leukemia inhibitory factor (LIF, Millipore #ESG1107) at 37° C. 5% CO2. Four to five days later, outgrowths from attached embryos were dissociated with 0.25% trypsin and passaged all onto new feeder cells. On the following day, the medium was replaced with N2B27-LIF media [DMEM/F12 (Life Technologies #10565-042) supplemented with 0.1 mM non-essential amino acids, 2 mM GlutaMAX, 50 U/ml penicillin-streptomycin, 0.1 mM 2-mercaptoethanol, 0.5×N2 supplement (Life technologies #17502-048), 0.5× B27 supplement (Life technologies #17504-044), […] CHIR99021 (STEMGENT #04-0004), 0.5 μM PD0325901 (STEMGENT #04-0006) and 1000 U LIF]. Five days later, expanded cells were reseeded as established ntESC.

Suv39h2 = Suv39h2 (Homo sapiens, UniProt Q9H5I1); conditions: cited from earlier work
[1] = cumulus donor cells (BDF1, female), TSA treatment 15 nM for 8 h, water or mRNA 1800 ng/μl injected

Chain of Suv39h2 (Q9H5I1 whole entry, species assumed): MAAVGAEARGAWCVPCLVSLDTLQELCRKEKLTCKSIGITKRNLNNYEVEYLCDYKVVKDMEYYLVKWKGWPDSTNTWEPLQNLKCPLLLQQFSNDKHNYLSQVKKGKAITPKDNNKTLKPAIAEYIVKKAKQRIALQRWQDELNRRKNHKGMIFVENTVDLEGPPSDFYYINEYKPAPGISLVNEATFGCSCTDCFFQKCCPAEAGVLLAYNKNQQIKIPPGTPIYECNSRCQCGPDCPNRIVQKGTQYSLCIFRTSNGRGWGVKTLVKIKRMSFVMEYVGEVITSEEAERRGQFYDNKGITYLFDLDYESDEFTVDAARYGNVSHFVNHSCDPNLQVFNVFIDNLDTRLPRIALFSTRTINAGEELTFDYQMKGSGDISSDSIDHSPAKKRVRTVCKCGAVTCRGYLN

For `Nc1nccc2c1ncn2[C@@H]1C=C(CO)[C@@H](O)[C@H]1O` [DZNep, 3-Deazaneplanocin A], the “levels of H3K27me3 and H3K9me3 (in words)” value (SetDB1 H3K9me3 HMTase) is listed as “reduced levels of both H3K27me3 and H3K9me3”.

With `CC(/C=C/C(=O)NO)=C\[C@@H](C)C(=O)c1ccc(N(C)C)cc1` [TSA, trichostatin A, reference compound] the “% 4-cell per 2-cell ± SD” value (SCNT embryos) was 72.1 ± 10.9 %, the “% blast per 2-cell ± SD” value (SCNT embryos) was 53.8% and 53.8 ± 6.2 % and the “% cleaved per 1-cell ± SD” value (SCNT embryos) was 98.0 ± 3.4%. For the same molecule, the “% morula per 2-cell ± SD” value (SCNT embryos) was 60.8 ± 6.8 %, the No. of blastocyst (SCNT embryos; ntESC derivation experiment) was 20 and the “blastocyst (% per 1-cell)” value (SCNT embryos; ntESC derivation experiment) was 51.3%. For the same molecule, the “efficiency of attachment or ntESC derivation per blastocyst, compared to control (in words)” value (SCNT blastocysts; SCNT blastocysts from cumulus donor cells) was “did not show any significant difference”, the “No. of blastocyst attached to feeder cells” value (SCNT blastocysts; [1]) was 14 and the “No. of established ntESC lines” value (SCNT blastocysts; [1]) was 8. For the same molecule, the “blastocyst attached to feeder cells (% per blast)” value (SCNT blastocysts; [1]) was 70.0%, the “established ntESC lines (% per MII oocyte)” value (SCNT blastocysts; [1]) was “(18.2) %” and the “established ntESC lines (% per blast)” value (SCNT blastocysts; [1]) was “(40.0) %”.

For `COc1cc2c(NC3CCN(C(C)C)CC3)nc(C3CCCCC3)nc2cc1OCCCN1CCCC1` [UNC0638, 2-Cyclohexyl-N-(1-isopropylpiperidin-4-yl)-6-methoxy-7-(3-(pyrrolidin-1-yl)propoxy)quinazolin-4-amine], the IC50 (Suv39h2) is listed as > 10 µM.
